According to patent EP4292827A1, “INK COMPOSITION, ARTICLE, AND PRODUCTION METHOD THEREFOR” (Zeon Corporation, priority 2021, dated 2022):
Where two headings read alike, the source gives them in different places.

Experiments:
[1] = standard compounds with known logP values described in JIS 7260-117:2006, used for calibration curve; cited from earlier work
[2] = physchem

Compound	logP [1]	chromatographic logP [2]	also measured
CC(=O)Nc1ccccc1 [Acetanilide]	1.0	–	–
C=CC(=O)OCCCCCCOc1ccc(C(=O)Oc2ccc(/C=N/N=C/c3ccc(OC(=O)c4ccc(OCCCCCCOC(=O)C=C)cc4)c(C(=O)OC)c3)cc2)cc1 [Example X1]	–	–	chromatographic logP ([2]; hplc): 6.01
C=CC(=O)OCCOc1ccc(-c2ccc(C#N)cc2)cc1 [Example X2]	–	1.75	–
C=CC(=O)OCCCCOC(=O)Oc1ccc(C(=O)Oc2ccc(C(=O)O[C@H]3CO[C@@H]4[C@H]3OC[C@H]4OC(=O)c3ccc(OC(=O)c4ccc(OC(=O)OCCCCOC(=O)C=C)cc4)cc3)cc2)cc1 [Example X3]	–	3.58	–
C=CC(=O)OCCCCCCCCOC(=O)Oc1ccc(C(=O)Oc2ccc(OC(=O)c3ccc(OC(=O)OCCCCCCCCOC(=O)C=C)cc3)c(C)c2)cc1 [Example X4]	–	5.11	–
c1ccc(N(c2ccccc2)c2ccccc2)cc1 [Triphenylamine]	5.7	–	–
